Article PMC11272821, “Mechanistic safety assessment via multi-omic characterisation of systemic pathway perturbations following in vivo MAT2A inhibition” (Archives of Toxicology, 2024)

Assays:
HCT116 MTAP KO cells [1] = assay: HCT116 cell SDMA assay, MTAP KO; type: cell-based
Source text: (§1) The structure and in vitro properties of the compound are shown in Table 1 together with potency in the HCT116 isogenic cell line (MTAP WT and KO) and in the MAT2A biochemical assay (SAM endpoint).

HCT116 MTAP KO cells [2] = assay: HCT116 cell SAM assay, MTAP KO; type: cell-based
Source text: as §1

methionine = assay: Targeted LC–MS of methionine in plasma, liver, brain and heart; type: in vivo, rat; details: 30 mg/kg BID
Procedure: SAM and methionine levels were quantified in plasma samples and tissues using Ultra Performance Liquid Chromatography (UPLC) coupled with quantitative MS in ESI positive ion mode as described in Supplementary M&M.
For LCMS analysis, standard curves were spiked to give a calibrated range of 1.0 – 1000 nM for SAM and 1.0 – 2000 for methionine. 5 µL of standard spike solution was added to 45 µL of ACN/MeOH/H2O (40/40/20 v/v/v) and 2.5 µL of deuterated citrulline is added as an internal standard. A further calibration curve was prepared with 5 µL blank mouse plasma, 5 µL of standard and 40 µL of 40:40:20 Acetonitrile:Methanol:0.5% formic acid (Aq) with 2.5 µL of deuterated citrulline was used to investigate matrix suppression effects. Blank plasma was also diluted 1:10 with ACN/MeOH/H2O (40/40/20 v/v/v) and was also analysed to establish systemic biomarker levels.
Metabolomic sample preparation and analysis. Tissue samples (liver, brain, heart) were extracted with 1 mL of ACN/MeOH/H2O 40/40/20 v/v/v per 100 mg material in a PrecellysCK28K-2 mL tube. Tissues were homogenised/extracted in 3x20 sec shake at 5500 rpm and centrifuged for 5 min at 10,621g. After centrifugation a maximum of 800 µL clear supernatant was transferred to cryovials and the same amount of extraction solvent used in the first step was added to tissue precipitate. Extraction procedure was repeated as above and clear supernatants combined in the same cryovial and vial labelled as polar metabolite extract. On the remaining tissue pellet 1ml (per100mg tissue material) of Butanol/MeOH 3/1v/v was added and the above extraction sequence applied. Resulted clear supernatant transferred to a clean cryovial and labelled as lipid extract. All samples kept at the lowest available temperature (0 °C) throughout the extraction process and stored at -80 °C until further analysis.

[3] = 7-day-rat investigative safety study (in-life, histopathology, clinical chemistry); type: in vivo; details: for liver microscopic examination, hepatocyte glycogen stores: 30 mg/kg, compared with vehicles
Procedure: All in vivo experimental procedures were conducted in accordance with United Kingdom legislation (Animals (Scientific Procedures) Act, 1986) and were compliant with the ARRIVE guidelines. 8–10 week old male (210–230 g) Crl:WI Han Wistar rats (Charles River Laboratories Ltd, UK) were acclimatised to the facility for 10 days and then randomised to groups based on bodyweight.
Following euthanasia and blood sample collections, animals were necropsied and subjected to gross examination. Samples of liver, brain and heart were collected and fixed in 10% neutral buffered formalin at room temperature for 48 h, followed by routine histology processing (Leica Biosystems) to paraffin embedded wax blocks. Paraffin embedded tissues were cut into […] sections using a microtome (Leica Biosystems) and mounted on glass microscope slides. Tissue sections were stained with hematoxylin and eosin and coverslipped. Stained slides were digitally scanned using an AT2 Scanscope pathology slide scanner (Leica Biosystems) and whole slide images were reviewed by a veterinary pathologist.
A whole blood sample (2.0 mL) was collected into lithium heparin from the caudal vena cava under isoflurane/oxygen anaesthesia immediately prior to euthanasia. Blood samples were centrifuged for 10 min at 4 °C to separate the plasma fraction. Plasma samples were divided into 0.5 mL aliquots and frozen at […] for storage prior to chemistry analysis. Plasma chemistry analysis was performed by Charles River Laboratories (Edinburgh, Scotland) following standard procedures.

rat liver transcriptome = assay: Liver transcriptomics; type: in vivo
Procedure: Total RNA was purified from liver samples with RNAdvance Tissue™ kit by Beckman Coulter Life Sciences according to manufacturer’s instructions. The method was carried out in an automated robotic solution with Biomek i7 Hybrid™. The concentration and quality of isolated RNA molecules were measured applying parallel capillary electrophoresis using Agilent Fragment Analyzer 5300 (DNF-471-33-SS Total RNA 15nt). The data were analysed in ProSize data analysis software to derive the concentration and RNA quality numbers (RQN) for individual samples.
The double-stranded cDNA obtained with Poly (A)-mRNA enrichment (500 ng total RNA input) was subjected to library preparation using KAPA Hyper Prep Kit (Kapa Biosystems, MA, USA) according to manufacturer’s protocol. The libraries were pooled in a single library and were sequenced on an Illumina NovaSeq6000 with a v1.5 SP 100 cycle kit as paired-end reads to PE51bp. The sequencing runs were carried out according to the manufacturer’s instructions.

[4] = Liver mass spectrometry imaging; type: in vivo, rat
Procedure: Liver MSI. Tissue samples were snap frozen in dry ice cooled isopentane. Frozen samples were embedded in a HPMA/PVP hydrogel as previously detailed (Dannhorn et al. 2020). Tissue sectioning was performed using a CM1950 cryostat microtome (Leica Biosystems, Nussloch, Germany) at a section thickness of 10 µm. The tissue sections for desorption electrospray ionisation MSI (DESI-MSI), and matrix assisted laser desorption ionisation (MALDI-MSI) were immediately thaw mounted onto Superfrost or indium tin oxide coated microscope slides respectively. Tissue sections for positive ion mode DESI-MSI were washed with xylene for 1 minute to reduce ion suppression of metabolites of interest.
MSI analysis of most metabolites was performed by DESI-MSI and analysis of glutathione and glutathione disulphide was performed with MALDI-MSI. DESI-MSI analysis was carried out using a Q-Exactive mass spectrometer (Thermo Scientific, Bremen, Germany) equipped with an automated 2D-DESI ion source (Prosolia Inc., Indianapolis, IN, USA). Experiments were carried out in both positive and negative mode with a mass range up to a m/z of 1000, with a nominal mass resolution of 70,000. The injection time was fixed to 150 ms resulting in a scan rate of 3.8 pixel/s. […]

Compound: Cn1cc2cc(-c3cc4[nH]nc(C5CC5)c4n(-c4ccc(OC(F)F)cc4)c3=O)ccc2n1 [AZ’9567]
- HCT116 cell SDMA pIC50 MTAP KO (HCT116 MTAP KO cells [1]): 8.6
- HCT116 cell SAM MTAP KO pIC50 (HCT116 MTAP KO cells [2]): 8.9
- Brain Methionine % Control (methionine): 1835 % Control
- Heart Methionine % Control (methionine): 1316 % Control
- Liver Methionine % Control (methionine): 2314 % Control
- Plasma Methionine % Control (methionine): 1557 % Control
- liver microscopic examination, hepatocyte glycogen stores ([3]; listed as AZMAT2Ai): decrease in glycogen stores
- liver microscopic examination, hepatocyte glycogen stores ([3]; listed as MAT2Ai): minimal decrease in hepatocyte glycogen stores
- clinical observations during the in-life phase ([3]; 3, 10, 30 mg/kg BID, 7 days): no clinical observations
- liver steatosis, histopathology ([3]; 8-days study): no histopathological evidence of liver steatosis
- food consumption and body weight ([3]; all dose groups): significant drop
- liver pathology ([3]; any dose group): No significant abnormalities detected
- bone marrow histopathology ([3]; data not shown): bone marrow toxicity affecting mostly the erythroid compartment
- pancreas histopathology ([3]; loss of both exocrine and endocrine parenchyma, data not shown): dose-dependent pancreatic necrosis
- histopathological examination of the heart or brain ([3]; rat, in vivo): No microscopic abnormalities
- plasma chemistry: markers of liver injury or cholesterol levels ([3]; vehicle vs treated animals): no differences
- differentially expressed liver genes (rat liver transcriptome; high dose (30 mg/kg BID)): 1638
- differentially expressed liver genes (rat liver transcriptome; low dose (3 mg/kg BID)): 2080
- distribution of the compound in liver sections [4]: mostly homogenously across the liver with hotspots of increased abundance in the blood vessels
